Several values for one entry are separate records, joined by “and”; a condition that tells them apart may be missing. Equal entries are not always repeated.
Columns and labels:
[1] = Urinary excretion of phenolic metabolites after intake of the GCPE nutraceutical; details: for Cumulative urinary excretion, Total 0–24 h: urine, mean ± SEM, n = 9
Description: (§1) Participants attended the Human Nutrition Unit (HNU) at the Institute of Food Science, Technology and Nutrition (ICTAN-CSIC) on two consecutive days at the beginning of the intervention (week 0) and also on two consecutive days at the end of the study, after consuming daily two doses of the GCPE nutraceutical, providing 600 mg/d phenols, during two months (week 8). […] A licensed health care professional placed an intravenous catheter in the subjects′ nondominant arm and collected a fasting blood sample (baseline, 0 h). Then, subjects drank the soluble GCPE nutraceutical dissolved in 200 mL of water. […] On the sampling days, volunteers remained at the HNU, where a (poly)phenol-free diet was provided. Half an hour after consuming the nutraceutical, volunteers ate a breakfast consisting of ham, cheese, white bread, and a yogurt. Lunch (paella, bread, and yogurt) and an afternoon snack (muffin and yogurt) were eaten 5 and 9 h, respectively, after consuming the nutraceutical. Water and isotonic beverages were freely available. […] The same protocol was followed during visits at the end of the 8-week intervention. On each occasion, two days before each visit to the HNU, subjects consumed a low (poly)phenol diet free of foods containing hydroxycinnamates such as coffee, herbal teas, red wine, artichokes, whole grain cereals, vegetables, fruits and fruit juices, and dried fruits. Only banana, watermelon, cantaloupes, and potatoes were allowed.
(§2) Blood samples were immediately centrifuged (10 min, 3000 rpm, 4 °C) to obtain plasma. […] All biological samples were stored at −80 °C until analysis.
(§3) To extract plasma metabolites, 10 µL of 50% (v/v) aqueous formic acid, and 900 µL cold acetonitrile containing 50 µL of 10% (w/v) ascorbic acid were added to 400 µL defrosted plasma. Samples were vortexed and centrifuged (14,000 rpm, 10 min, 4 °C), repeating the extraction and combining the two supernatants, which were reduced to dryness under nitrogen [13]. Dried samples were resuspended in 150 µL of 0.1% aqueous formic acid (containing 10% acetonitrile acidified with 0.1% formic acid), centrifuged (15 min, 14,000 rpm, 4 °C), and the supernatant collected. Urine samples were diluted 1:1 with Milli-Q water and centrifuged (14,000 rpm, 20 min, 4 °C) prior to analysis. Phosphate-buffered saline (3 mL) was added to a representative 300 mg sample of thawed feces, homogenized in an ultrasound bath during 10 min, centrifuged (14,000 rpm, 20 min, 4 °C), and the supernatants collected.
(§4) Mobile phase A was 0.1% formic acid in Milli-Q water, and mobile phase B was acetonitrile containing 0.1% formic acid at a 0.3 mL/min flow rate. […] Metabolites were identified based on their retention time using authentic standards when possible. […] Urine concentration of excreted metabolites was normalized to the total volume excreted in each studied interval.
(§5) Plasma (30 µL), urine (5 µL) and fecal extracts (5 µL) were filtered through 0.45 µm
(§6) cellulose-acetate membrane filters and injected into an Agilent 1200 series LC system
(§7) ESI-Jet Stream Technology (Agilent Technologies). A reverse-phase Ascentis Express
(§8) C18 (15 cm x 3 mm, 2.7 µm) column (Sigma-Aldrich Quimica, Madrid), preceded by a
(§9) phase A was 0.1% formic acid in Milli-Q water, and mobile phase B was acetonitrile
(§10) containing 0.1% formic acid at a 0.3 mL/min flow rate. The gradient started with 10% B
(§11) at 0 min, 30% B at 10 min, 40% B at 15 min, reaching 50% B at 20 min. The starting
(§12) gradient was then re-established in 2 min and maintained for 8 min to re-equilibrate the

[2] = Fecal excretion of phenolic metabolites after intake of the GCPE nutraceutical; details: feces
Description: as §1, §2, §3, §4, §5, §6, §7, §8, §9, §10, §11, §12

[3] = Plasma pharmacokinetics of phenolic metabolites after intake of the GCPE nutraceutical (LC-MS-QToF); details: for AUC(0-t): AUC0–24h; for Tmax: Tmax (h) or Range
Description: Participants attended the Human Nutrition Unit (HNU) at the Institute of Food Science, Technology and Nutrition (ICTAN-CSIC) on two consecutive days at the beginning of the intervention (week 0) and also on two consecutive days at the end of the study, after consuming daily two doses of the GCPE nutraceutical, providing 600 mg/d phenols, during two months (week 8). On each occasion, on the first visit day (Figure 1), subjects arrived at the HNU after an overnight (12 h) fast and provided a urine sample. A licensed health care professional placed an intravenous catheter in the subjects′ nondominant arm and collected a fasting blood sample (baseline, 0 h). Then, subjects drank the soluble GCPE nutraceutical dissolved in 200 mL of water. Subsequently, blood samples were collected in EDTA-coated tubes at 0.5, 1, 1.5, 2, 3, 4, 6, 8, 10, and 11 h. On the sampling days, volunteers remained at the HNU, where a (poly)phenol-free diet was provided. Half an hour after consuming the nutraceutical, volunteers ate a breakfast consisting of ham, cheese, white bread, and a yogurt. Lunch (paella, bread, and yogurt) and an afternoon snack (muffin and yogurt) were eaten 5 and 9 h, respectively, after consuming the nutraceutical. Water and isotonic beverages were freely available. Volunteers were instructed to eat a (poly)phenol-free dinner that night and to attend the HNU on the next day after a 12 h fast. Then, a final blood sample was obtained from the antecubital vein 24 h after consuming the nutraceutical. The same protocol was followed during visits at the end of the 8-week intervention. On each occasion, two days before each visit to the HNU, subjects consumed a low (poly)phenol diet free of foods containing hydroxycinnamates such as coffee, herbal teas, red wine, artichokes, whole grain cereals, vegetables, fruits and fruit juices, and dried fruits. Only banana, watermelon, cantaloupes, and potatoes were allowed.
as §2
To extract plasma metabolites, 10 µL of 50% (v/v) aqueous formic acid, and 900 µL cold acetonitrile containing 50 µL of 10% (w/v) ascorbic acid were added to 400 µL defrosted plasma. Samples were vortexed and centrifuged (14,000 rpm, 10 min, 4 °C), repeating the extraction and combining the two supernatants, which were reduced to dryness under nitrogen [13]. Dried samples were resuspended in 150 µL of 0.1% aqueous formic acid (containing 10% acetonitrile acidified with 0.1% formic acid), centrifuged (15 min, 14,000 rpm, 4 °C), and the supernatant collected.
A reverse-phase Ascentis Express C18 (15 cm × 3 mm, 2.7 µm) column (Sigma-Aldrich Quimica, Madrid, Spain), preceded by a Supelco 55215-U guard column (3 mm × 5 mm, 2.7 µm), was used for separation. Mobile phase A was 0.1% formic acid in Milli-Q water, and mobile phase B was acetonitrile containing 0.1% formic acid at a 0.3 mL/min flow rate. […] Metabolites were identified based on their retention time using authentic standards when possible.

| SMILES | Cumulative urinary excretion, Total 0–24 h ([1]; week 0) [µmol] | Cumulative urinary excretion, Total 0–24 h ([1]; week 8) [µmol] | Amount excreted in urine, 0- 3 h ([1]; week 0, interval 0–3 h) [µmol] | Amount excreted in urine, 3-6 h ([1]; week 0, interval 3–6 h) [µmol] | Amount excreted in urine, 6-9 h ([1]; week 0, interval 6–9 h) [µmol] | Amount excreted in urine, 9-11 h ([1]; week 0, interval 9–11 h) [µmol] | Amount excreted in urine, 11-24 h ([1]; week 0, interval 11–24 h) [µmol] | Amount excreted in urine, 0- 3 h ([1]; week 8, interval 0–3 h) [µmol] | Amount excreted in urine, 3-6 h ([1]; week 8, interval 3–6 h) [µmol] | Amount excreted in urine, 6-9 h ([1]; week 8, interval 6–9 h) [µmol] | Amount excreted in urine, 9-11 h ([1]; week 8, interval 9–11 h) [µmol] | Amount excreted in urine, 11-24 h ([1]; week 8, interval 11–24 h) [µmol] | Amount of fecal metabolite excreted at 0 h ([2]; week 0, mean ± SEM, n = 9) | Amount of fecal metabolite excreted at 0 h ([2]; week 8) | Amount of fecal metabolite excreted at 24 h ([2]; week 0) [µmol/g] | Amount of fecal metabolite excreted at 24 h ([2]; week 8) [µmol/g] | also measured |
| --- | --- | --- | --- | --- | --- | --- | --- | --- | --- | --- | --- | --- | --- | --- | --- | --- | --- |
| O=C(O)c1ccc(O)c(O)c1 [3,4-Dihydroxybenzoic acid] | 0.13 ± 0.02 | 0.18 ± 0.04 | 0.016 ± 0.005 | 0.007 ± 0.003 | 0.017 ± 0.005 | 0.018 ± 0.006 | 0.035 ± 0.009 | 0.03 ± 0.01 | 0.014 ± 0.003 | 0.027 ± 0.007 | 0.018 ± 0.007 | 0.03 ± 0.009 | 0.016 ± 0.006 µmol/g | 0.026 ± 0.008 µmol/g | 0.018 ± 0.005 | 0.04 ± 0.01 | Amount of fecal metabolite excreted at 0 h ([2]; week 0, mean ± SEM, n = 9, listed as 3,4-dihydroxybenzoic acid): 0.016 µmol/g; Amount of fecal metabolite excreted at 0 h ([2]; week 8, listed as 3,4-dihydroxybenzoic acid): 0.026 µmol/g |
| COc1cc(/C=C/C(=O)O[C@@H]2C[C@@](O)(C(=O)O)C[C@@H](O)[C@@H]2O)ccc1O [3-Feruloylquinic acid] | 0.29 ± 0.07 | 0.34 ± 0.07 | 0.15 ± 0.04 | 0.1 ± 0.04 | 0.021 ± 0.006 | 0.007 ± 0.004 | 0.01 ± 0.005 | 0.19 ± 0.04 | 0.08 ± 0.02 | 0.05 ± 0.01 | 0.014 ± 0.008 | 0.015 ± 0.007 | 0.003 ± 0.003 µmol/g | 0.0010 ± 0.0007 µmol/g | 0.003 ± 0.003 | 0.003 ± 0.002 |  |
| O=C(O)Cc1ccc(O)c(O)c1 [3′,4′-Dihydroxyphenylacetic acid] | 1.2 ± 0.2 | 1.3 ± 0.2 | 0.12 ± 0.03 | 0.08 ± 0.03 | 0.11 ± 0.05 | 0.06 ± 0.02 | 0.38 ± 0.04 | 0.15 ± 0.03 | 0.05 ± 0.02 | 0.08 ± 0.02 | 0.09 ± 0.03 | 0.31 ± 0.03 |  |  |  | 0.010 ± 0.008 |  |
| O=C(CCc1ccc(O)c(O)c1)OC1CC(O)(C(=O)O)CC(O)C1O (stereo not drawn) [5-Dihydrocaffeoylquinic acid] | 0.03 ± 0.02 | 0.03 ± 0.01 | 0.012 ± 0.006 | 0.005 ± 0.003 | 0.003 ± 0.002 | 0.003 ± 0.002 | 0.01 ± 0.004 | 0.004 ± 0.003 | 0.002 ± 0.001 | 0.002 ± 0.002 | 0.002 ± 0.002 | 0.015 ± 0.008 | 0.04 ± 0.01 µmol/g | 0.06 ± 0.02 µmol/g | 0.05 ± 0.01 | 0.08 ± 0.02 |  |
| O=C(O)/C=C/c1ccc(O)c(O)c1 [CA, 3′,4′-Dihydroxycinnamic acid] | 0.42 ± 0.06 | 0.45 ± 0.09 | 0.13 ± 0.03 | 0.08 ± 0.02 | 0.08 ± 0.03 | 0.023 ± 0.008 | 0.12 ± 0.02 | 0.12 ± 0.03 | 0.06 ± 0.01 | 0.11 ± 0.02 | 0.06 ± 0.03 | 0.11 ± 0.03 |  | 0.003 ± 0.002 µmol/g | 0.0003 ± 0.0003 | 0.003 ± 0.003 |  |
| O=C(O)/C=C/c1ccc(O)cc1 [CoA, 4′-Hydroxycinnamic acid] |  |  |  |  |  |  |  |  |  |  |  |  |  | 0.006 ± 0.004 µmol/g | 0.002 ± 0.002 | 0.003 ± 0.001 |  |
| O=C(O)CCc1cccc(O)c1 [DHiCoA, 3-(3′-Hydroxyphenyl)propanoic acid] |  |  |  |  |  |  |  |  |  |  |  |  | 0.21 µmol/g and 0.21 ± 0.07 µmol/g | 0.4 µmol/g and 0.4 ± 0.1 µmol/g | 0.24 ± 0.07 | 0.25 ± 0.07 |  |
| COc1cc(/C=C/C(=O)NCC(=O)O)ccc1O [Feruloylglycine] | 19 ± 5 | 25 ± 5 | 1 ± 0.2 | 0.9 ± 0.3 | 4 ± 1 | 2.6 ± 0.9 | 3.9 ± 0.9 | 1 ± 0.3 | 1.2 ± 0.3 | 3 ± 1 | 3 ± 1 | 3 ± 1 |  |  |  |  | Cumulative urinary excretion, Total 0–24 h ([1]; week 0, listed as feruloylglycine): 19 µmol; Cumulative urinary excretion, Total 0–24 h ([1]; week 8, listed as feruloylglycine): 25 µmol; Amount excreted in urine, TOTAL ([1]; week 0, Table S5 total): 19 ± 5 µmol; Amount excreted in urine, 0 h ([1]; week 8, 0 h (before intake on sampling day)): 14 ± 4 µmol; Amount excreted in urine, TOTAL ([1]; week 8, Table S6 total): 25 ± 5 µmol; AUC0–24h ([3]; week 0): 0.029 ± 0.007 µM/min; Cmax ([3]; week 0, GCPE nutraceutical with 300 mg hydroxycinnamic acids, mean ± SEM, n = 9): Traces ^b; Tmax (h) or Range ([3]; week 0, first peak where biphasic): 7 ± 1 h; AUC0–24h ([3]; week 8): 0.026 ± 0.004 µM/min; Cmax ([3]; week 8, GCPE nutraceutical with 300 mg hydroxycinnamic acids, mean ± SEM, n = 9): Traces ^b; Tmax (h) or Range ([3]; week 8, first peak where biphasic): 8.4 ± 0.6 h; Cmax ([3]; weeks 0 and 8 not distinguished): trace levels |
| COc1ccc(/C=C/C(=O)O)cc1O [iFA, 3′-Hydroxy-4′-methoxycinnamic acid] | 1.7 ± 0.2 | 2.1 ± 0.2 | 1 ± 0.2 | 0.35 ± 0.07 | 0.27 ± 0.07 | 0.04 ± 0.03 | 0.04 ± 0.02 | 1.2 ± 0.2 | 0.32 ± 0.04 | 0.39 ± 0.07 | 0.13 ± 0.07 | 0.09 ± 0.04 |  |  |  |  | AUC(0-t) ([3]; human, oral, 300 mg hydroxycinnamic acids, week 0): 0.025 ± 0.007 µM·h; AUC(0-t) ([3]; human, oral, 300 mg hydroxycinnamic acids, week 8): 0.043 ± 0.008 µM·h; Tmax ([3]; human, oral, 300 mg hydroxycinnamic acids, week 0, first peak where biphasic): 30 ± 6 min; Tmax ([3]; human, oral, 300 mg hydroxycinnamic acids, week 8, first peak where biphasic): 30 min; AUC(0-t) ([3]; human, oral, 300 mg phenols, week 0): 0.025 µM·h; AUC(0-t) ([3]; human, oral, 300 mg phenols, week 8): 0.043 µM·h; Cmax ([3]; human, oral, 300 mg, Cmax, week 0, GCPE nutraceutical with 300 mg hydroxycinnamic acids, mean ± SEM, n = 9): 23 ± 6 nM; Cmax ([3]; human, oral, 300 mg, Cmax, week 8, GCPE nutraceutical with 300 mg hydroxycinnamic acids, mean ± SEM, n = 9): 32 ± 7 nM |
